{"source": "patent US10610517B2", "about": "“Compositions and methods for treating neoplastic diseases” (Celgene International II Sàrl, priority 2004, dated 2020)", "key": {"[1]": {"biological_target": "proteasome β-5, β-1, β-2 subunits in MM.1S cells (Homo sapiens, UniProt P28072+P28074+Q99436)", "type": "cell-based", "details": "even higher doses; data not shown", "procedure": "In vivo determination of proteasome activity was conducted using a competition experiment with Dansyl-Ahx3L3VS, which covalently modifies all active proteasome subunits. This inhibitor contains a dansyl sulfonamide hexanoyl hapten that can be visualized by immunoblotting using antibodies against the dansyl moiety. […] Cells were lysed by incubating them for 30 mins in NP-40 lysis buffer (50 mM Tris-HCl pH 8.0, 150 mM NaCl, 1% NP-40), followed by 5 min. centrifugation to remove membrane fractions, nuclei, and cell debris. […] Blots were developed by enhanced chemiluminescence (Western Lightning, Perkin-Elmer)."}, "[2]": {"system": "Bcl2-transfected MM.1S cells", "experiment": "MTT viability of Bcl2-transfected MM.1S cells", "procedure": "Bcl2 confers resistance to conventional therapies in cancer cells, including MM. […] Bcl2 can modestly attenuate Bortezomib-induced apoptosis. Thus, whether ectopic expression of Bcl2 in MM.1S cells affects responsiveness to the compound of formula (II) (X=Cl) was evaluated. MM.1S cells were stably transfected with Bcl2 construct and analyzed for alterations in cell viability using an MTT assay. […] Results are mean±SD of three independent experiments.\nDuring apoptosis Bax neutralizes the antiapoptotic function of Bcl-2, thereby facilitating the cyto-c release and caspase-9 activation. Bcl-2 also confers drug resistance in cancer cells, including MM, and provides partial protection against Bortezomib-induced killing. Therefore, whether ectopic expression of Bcl-2 in MM.1S cells affects the ability of the compound of formula (II) or Bortezomib to trigger cytotoxicity and postmitochondrial apoptotic signaling in MM cells was evaluated."}, "RPMI 8226 MM cells": {"system": "RPMI 8226 MM cells", "type": "in vivo, beige-nude-xid (BNX) mice", "details": "i.v. twice weekly (compound 0.15 mg/kg; Bortezomib 1.0 mg/kg)"}, "MM.1S cells [3]": {"system": "MM.1S cells", "experiment": "cells", "from_the_text": "MM.1S cells were also transiently transfected using Cell line Nucleofecto kit V, according to the manufacturer's instructions (Amaxa Biosystems, Germany), with vector alone, DN-caspase-8, DN-caspase-9, or DN-FADD and cotransfected with vector containing green fluorescence protein (GFP) alone.\nIt was next determined whether inhibition of an upstream signaling pathway that leads to caspase-8 activation affects the response to the compound of formula (II) (X=Cl) or Bortezomib. The Fas-associated death domain (FADD) protein is an important part of the deathinducing signaling complexes (DISCs) that assemble upon engagement of TNF receptor family members, such as Fas, resulting in proteolytic processing and autoactivation of pro-caspase-8. Since both the compound of formula (II) (X=Cl) and Bortezomib trigger caspase-8 activation, the role of FADD during this event in MM cells was evaluated using DN-FADD."}, "Bax": {"system": "Bax", "experiment": "Immunoblot of Bax in mitochondrial protein extracts", "type": "cell-based, human", "details": "MM.1S cells; FIG. 12E", "procedure": "Immunoblot analysis was performed using antibodies to cytochrome-c, Smac, Caspase-8, -9, or -3 (Cell Signaling, Beverly, Mass.), tubulin (Sigma, St. Louis, Mo.), PARP, Hsp60, or Bax (BD Bioscience Pharmingen, San Diego, Calif.). Blots were developed by enhanced chemiluminesence (ECL; Amersham, Arlington Heights, Ill.).\nPrevious studies have established that Bax induces mitochondrial apoptotic pathway. See Wei, M. C., Zong, W. X., Cheng, E. H., Lindsten, T., Panoutsakopoulou, V., Ross, A. J., Roth, K. A., MacGregor, G. R., Thompson, C. B. & Korsmeyer, S. J. (2001) Science 292, 727-30 and Lei, K., Nimnual, A., Zong, W. X., Kennedy, N. J., Flavell, R. A., Thompson, C. […] Thus, whether MM cell apoptosis induced by the compound of formula (II) (X=Cl) correlates with alterations in Bax was evaluated. […] Blots are representatives of three independent experiments."}, "[4]": {"system": "Mouse embryonic fibroblast (MEFs)", "experiment": "MTT viability of MEFs with wild-type or knock-out Bax", "type": "cell-based", "details": "48 h; FIG. 12F", "excerpt": "Results are mean±SD of three independent experiments (P<0.05)."}, "[5]": {"system": "Lymphocytes from five healthy donors", "experiment": "MTT cytotoxicity on normal lymphocytes", "details": "human, 72 h", "from_the_text": "Bortezomib therapy is associated with toxicity in patients. […] Results are the mean±SD of three independent experiments."}, "[6]": {"system": "Chymotrypsin-like proteasome activity", "type": "cell-based, human", "details": "data not shown", "from_the_text": "(§1) Whether the compound of formula (II) or Bortezomib alters proteasome activity in normal lymphocytes and skin fibroblasts was also examined."}, "[7]": {"system": "normal CCD-27sk fibroblasts", "experiment": "cells", "type": "cell-based, human", "details": "Homo sapiens", "from_the_text": "as §1"}, "proteasome": {"biological_target": "proteasome (Homo sapiens, UniProt P28074)", "sequence (P28074 60-263)": "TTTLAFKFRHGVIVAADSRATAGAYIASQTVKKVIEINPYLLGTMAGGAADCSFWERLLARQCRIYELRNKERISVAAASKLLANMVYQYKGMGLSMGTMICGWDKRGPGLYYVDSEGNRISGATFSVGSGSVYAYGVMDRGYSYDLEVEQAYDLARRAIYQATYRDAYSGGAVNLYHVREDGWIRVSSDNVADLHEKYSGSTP", "details": "Goldberg & Rock 2002; Adams 2004; cited from earlier work"}, "MM.1S cells [8]": {"system": "MM.1S cells", "experiment": "MTT viability of MM.1S cells with or without rhIL-6 or rhIGF-I", "type": "cell-based, human", "details": "human, 24 h", "from_the_text": "Adhesion of MM cells to BMSCs induces IL-6 and IGF-I secretion from BMSCs, which not only regulates the growth of MM cells, but also protects against chemotherapy. See Hardin, J., MacLeod, S., Grigorieva, I., Chang, R., Barlogie, B., Xiao, H. & Epstein, J. (1994) Blood 84, 3063-70 and Chauhan, D., Kharbanda, S., Ogata, A., Urashima, M., Teoh, G., Robertson, M., Kufe, D. W. & Anderson, K. C. […] Thus, whether rhIL-6 or rhIGF-I inhibits apoptosis in MM cells induced by the compound of Formula (II) (X=Cl) was evaluated. […] At 24 h cells were harvested and viability analyzed by MTT assays. […] Median viability was 51±2.1% after treatment with Dex and 92±5.5% for Dex+rhIL-6 (P=0.05, as determined by one-sided Wilcoxon rank-sum test). Results are mean±SD of three independent experiments. […] In contrast and as in other studies, both IL-6 and IGF-I block Dex-induced decreased MM.1S cell viability. See Chauhan, D., Hideshima, T. & Anderson, K. C. (2003) Int J Hematol 78, 114-20 and Mitsiades, C. S., Mitsiades, N., Poulaki, V., Schlossman, R., Akiyama, M., Chauhan, D., Hideshima, T., Treon, S. P., Munshi, N. C., Richardson, P. G. & Anderson, K. C."}}}
{"molecule": "CC(C)C[C@H](NC(=O)[C@H](Cc1ccccc1)NC(=O)c1cnccn1)B(O)O", "note": "[Bortezomib, reference compound]", "values": [{"measurement": "inhibition of the β-2 subunits", "setting": "[1]", "result": "does not inhibit the β-2 subunits"}, {"measurement": "increased survival of Bcl-2 transfectants", "setting": "[2]; Bcl-2- versus vector-transfected, FIG. 14A", "result": 21, "unit": "%"}, {"measurement": "decrease of caspase-9 cleavage in Bcl-2-transfected cells by densitometry", "setting": "[2]; versus vector-transfected cells, FIG. 14B", "result": 3, "unit": "fold"}, {"measurement": "tumor progression", "setting": "RPMI 8226 MM cells; p<0.01", "result": "significantly reduced the tumor progression"}, {"measurement": "survival", "setting": "RPMI 8226 MM cells; p=0.0137", "result": "prolonged survival"}, {"measurement": "increase in survival of DN-FADD-transfected compared to vector-transfected cells", "setting": "MM.1S cells [3]; FIG. 12D", "result": 16, "unit": "%"}, {"measurement": "IC50", "setting": "MM.1S cells [3]; Homo sapiens, MM1.S", "result": 0.005, "unit": "µM"}, {"measurement": "effect of caspase-8 blockade on triggered cell death", "setting": "MM.1S cells [3]; IETD-fmk, FIG. 12A", "result": "equally blocked"}, {"measurement": "effect of caspase-9 inhibition on decreased viability", "setting": "MM.1S cells [3]; LEHD-FMK, FIG. 12A", "result": "equally blocked"}, {"measurement": "survival of DN-caspase-8-transfected compared to DN-caspase-9-transfected cells", "setting": "MM.1S cells [3]; treated at IC50, FIG. 12B", "result": "increased the survival to a similar extent"}, {"measurement": "effect of caspase-3 inhibition on induced apoptosis", "setting": "MM.1S cells [3]; z-VAD-fmk, FIG. 12A", "result": "markedly abrogates"}, {"measurement": "Bax levels in mitochondria", "setting": "Bax", "result": "significant accumulation of Bax in mitochondria"}, {"measurement": "cell viability in Bax (WT) and Bax (knock-out) MEFs", "setting": "[4]", "result": "deletion of Bax confers significant resistance"}, {"measurement": "decrease in viability of normal lymphocytes", "setting": "[5]", "result": 50, "unit": "%"}, {"measurement": "inhibition of Chymotrypsin-like proteasome activity", "setting": "[6]; 20 nM", "result": "59±11", "unit": "%"}, {"measurement": "proteasome activity in CCD-27sk fibroblasts", "setting": "[6]; treatment at the IC50", "result": "inhibited proteasome activity"}, {"measurement": "IC50", "setting": "[7]", "result": 0.015, "unit": "µM"}, {"measurement": "proteasome activities inhibited", "setting": "proteasome", "result": "inhibit only chymotrypsin-like proteasome activity"}]}
{"molecule": "C[C@@H]1C[C@H]2[C@@H]3CCC4=CC(=O)C=C[C@]4(C)[C@@]3(F)[C@@H](O)C[C@]2(C)[C@@]1(O)C(=O)CO", "note": "[Dex, reference compound]", "values": [{"measurement": "median cell viability", "setting": "MM.1S cells [8]", "result": "51±2.1", "unit": "%"}]}
